What all share (format): in vivo
In test [1] the test system is Kochia (Kochia scoparia). The experiment in a line: Test A postemergence. The note with it: Bassia scoparia, post-emergence, 240 h, read-out: Plant response rating, Kochia; for pest or weed control at 125 g/ha: 125 g ai/ha, postemergence, visual injury after approximately 10 d, 0 to 100 scale (0 no effect, 100 complete control). Summed up: (§1)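 In a loam soil and sand blend, planted seeds got a preemergence directed soil spray, and young plants at the one- to two-leaf stage, 2–10 cm high, got a postemergence application; ~10 d greenhouse hold; injury rated visually, 0 = none, 100 = complete control.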

In test [2] the test system is giant foxtail (Setaria faberii). The experiment in a line: Test A postemergence. The note with it: Setaria faberi, post-emergence, 240 h, read-out: Plant response rating, Foxtail, Giant; for pest or weed control at 125 g/ha: 125 g ai/ha, postemergence, visual injury after approximately 10 d, 0 to 100 scale (0 no effect, 100 complete control). The gist of the method: as §1

The subject of test [3] is barnyardgrass (Echinochloa crus-galli). The experiment in a line: Test A postemergence. The settings on record: Echinochloa crus-galli, post-emergence, 240 h, read-out: Plant response rating, Barnyardgrass; for pest or weed control at 125 g/ha: 125 g ai/ha, postemergence, visual injury after approximately 10 d, 0 to 100 scale (0 no effect, 100 complete control). Summed up: as §1

Test [4] deals with blackgrass (Alopecurus myosuroides). The experiment in a line: Test A postemergence. The settings on record: Alopecurus myosuroides, post-emergence, 240 h, read-out: Plant response rating, Blackgrass; for pest or weed control at 125 g/ha: 125 g ai/ha, postemergence, visual injury after approximately 10 d, 0 to 100 scale (0 no effect, 100 complete control). Summed up: as §1
Test [5] relates to wheat (Triticum aestivum). Nature of the test: Test A postemergence. The settings on record: Triticum aestivum, post-emergence, 240 h, read-out: Plant response rating, Wheat; for plant injury at 125 g/ha: 125 g ai/ha, postemergence, visual injury after approximately 10 d, 0 to 100 scale (0 no effect, 100 complete control). The gist of the method: as §1
Test [6] deals with pigweed (Amaranthus retroflexus). Nature of the test: Test A postemergence. The settings on record: Amaranthus retroflexus, post-emergence, 240 h, read-out: Plant response rating, Pigweed; for pest or weed control at 125 g/ha: 125 g ai/ha, postemergence, visual injury after approximately 10 d, 0 to 100 scale (0 no effect, 100 complete control). Summed up:
as §1

In test [7] the test system is ryegrass, Italian (Italian ryegrass, Lolium multiflorum). The experiment in a line: Test A postemergence. The settings on record: Lolium multiflorum, post-emergence, 240 h, read-out: Plant response rating, Ryegrass, Italian; for pest or weed control at 125 g/ha: 125 g ai/ha, postemergence, visual injury after approximately 10 d, 0 to 100 scale (0 no effect, 100 complete control). The gist of the method: as §1

Test [8] has as its system Galium (catchweed bedstraw, Galium aparine). Nature of the test: Test A postemergence. The note with it: Galium, post-emergence, 240 h, read-out: Plant response rating, Galium; for pest or weed control at 125 g/ha: 125 g ai/ha, postemergence, visual injury after approximately 10 d, 0 to 100 scale (0 no effect, 100 complete control). The gist of the method:
as §1

The test system of test [9] is ragweed (common ragweed, Ambrosia elatior). Nature of the test: Test A postemergence. The settings on record: Ambrosia artemisiifolia, post-emergence, 240 h, read-out: Plant response rating, Ragweed; for pest or weed control at 125 g/ha: 125 g ai/ha, postemergence, visual injury after approximately 10 d, 0 to 100 scale (0 no effect, 100 complete control). The gist of the method:
as §1

Another test relates to corn (Zea mays). Nature of the test: Test A postemergence. The settings on record: Zea mays, post-emergence, 240 h; for Corn plant response rating (crop injury, 0 = no effect, 100 = complete kill) at 125 g/ha: 125 g ai/ha, postemergence, visual injury after approximately 10 d, 0 to 100 scale (0 no effect, 100 complete control). Summed up: as §1
The subject of test [10] is Kochia (Kochia scoparia). The experiment in a line: Test A preemergence. The settings on record: Bassia scoparia, pre-emergence, 240 h, read-out: Plant response rating, Kochia; for pest or weed control at 125 g/ha: 125 g ai/ha, visual rating after approx. 10 d, 0 to 100 scale where 0 is no effect and 100 is complete control; for pest or weed control at 125 g/ha / pest or weed control at 500 g/ha: preemergence; for pest or weed control at 500 g/ha: 500 g ai/ha, 0 to 100 scale, 0 = no effect, 100 = complete control. Summed up:
as §1

The subject of test [11] is giant foxtail (Setaria faberii). Nature of the test: Test A preemergence. The note with it: Setaria faberi, pre-emergence, 240 h, read-out: Plant response rating, Foxtail, Giant; for pest or weed control at 125 g/ha: 125 g ai/ha, visual rating after approx. 10 d, 0 to 100 scale where 0 is no effect and 100 is complete control; for pest or weed control at 125 g/ha / pest or weed control at 500 g/ha: preemergence; for pest or weed control at 500 g/ha: 500 g ai/ha, 0 to 100 scale, 0 = no effect, 100 = complete control. Summed up: as §1

Test [12] has as its system pigweed (Amaranthus retroflexus). Nature of the test: Test A preemergence. The settings on record: Amaranthus retroflexus, pre-emergence, 240 h, read-out: Plant response rating, Pigweed; for pest or weed control at 125 g/ha: 125 g ai/ha, visual rating after approx. 10 d, 0 to 100 scale where 0 is no effect and 100 is complete control; for pest or weed control at 125 g/ha / pest or weed control at 500 g/ha: preemergence; for pest or weed control at 500 g/ha: 500 g ai/ha, 0 to 100 scale, 0 = no effect, 100 = complete control.

For test [13], the system named is ryegrass, Italian (Italian ryegrass, Lolium multiflorum). Nature of the test: Test A preemergence. The note with it: Lolium multiflorum, pre-emergence, 240 h, read-out: Plant response rating, Ryegrass, Italian; for pest or weed control at 125 g/ha: 125 g ai/ha, visual rating after approx. 10 d, 0 to 100 scale where 0 is no effect and 100 is complete control; for pest or weed control at 125 g/ha / pest or weed control at 500 g/ha: preemergence; for pest or weed control at 500 g/ha: 500 g ai/ha, 0 to 100 scale, 0 = no effect, 100 = complete control. Summed up: as §1

For test [14], the system named is ragweed (common ragweed, Ambrosia elatior). The experiment in a line: Test A preemergence. The settings on record: Ambrosia artemisiifolia, pre-emergence, 240 h, read-out: Plant response rating, Ragweed; for pest or weed control at 125 g/ha: 125 g ai/ha, visual rating after approx. 10 d, 0 to 100 scale where 0 is no effect and 100 is complete control; for pest or weed control at 125 g/ha / pest or weed control at 500 g/ha: preemergence; for pest or weed control at 500 g/ha: 500 g ai/ha, 0 to 100 scale, 0 = no effect, 100 = complete control. Summed up:
as §1

The mark [15] stands for this setting: Postemergence, 31 g ai/ha, visual injury after approx. 10 d, 0 to 100 scale, 0 no effect, 100 complete control.
Setting [16] is: Preemergence, 31 g ai/ha, 0 to 100 scale (0 no effect, 100 complete control).

With `Cc1cc([C@H]2CN(C)C(=O)[C@@H]2C(=O)Nc2ccc(F)c(F)c2F)ccc1F` [Compound 719], the pest or weed control at 125 g/ha is 60% in the test with Kochia (Kochia scoparia) [1]; 90% in [2]; 90% in test [3]; 60% in [4]; 50% in test [6]; 50% in [7]. For the same compound, the pest or weed control at 125 g/ha in test [8] is 60%; in [9], 30%; in the test on Kochia (Kochia scoparia) [10] it was 70%; in test [11], 90%; in test [12] it was 50%; in test [13], 70%. The pest or weed control at 125 g/ha in test [14] was found to be 20%. Also, the plant injury at 125 g/ha in test [5] amounted to 80%. Besides, the Corn plant response rating (crop injury, 0 = no effect, 100 = complete kill) at 125 g/ha in the test with corn (Zea mays) stood at 90%. Also, the pest or weed control at 500 g/ha was found to be 80% in the test with Kochia (Kochia scoparia) [10]; 90% in [11]; 90% in test [12]; 90% in test [13]; 70% in [14].
For the compound `CSc1ccccc1NC(=O)[C@H]1C(=O)N(C)C[C@@H]1c1cc(F)cc(F)c1` [Compound 738], the pest or weed control at 125 g/ha is 20% in the test on Kochia (Kochia scoparia) [1]; 70% in test [2]; 80% in [3]; 0% in [4]; 20% in [6]; 0% in test [7]. Also, the pest or weed control at 125 g/ha in test [8] was 50%; in test [9], 0%; with Kochia (Kochia scoparia) [10] it was 0%; in test [11], 90%; in test [12], 0%; in test [13], 0%. Further, the pest or weed control at 125 g/ha in [14] amounted to 0%. Moreover, the plant injury at 125 g/ha in test [5] was 0%. In the test with corn (Zea mays), this compound had a Corn plant response rating (crop injury, 0 = no effect, 100 = complete kill) at 125 g/ha of 20%. Further, the pest or weed control at 500 g/ha was 70% with Kochia (Kochia scoparia) [10]; 100% in test [11]; 50% in test [12]; 20% in [13]; 70% in [14].
Consider `CSc1ccccc1NC(=O)[C@H]1C(=O)N(C)C[C@@H]1c1cc(C)c(C)c(C)c1` [Compound 798], for which the pest or weed control at 125 g/ha was 0% in the test on Kochia (Kochia scoparia) [1]; 70% in test [2]; 80% in test [3]; 40% in test [4]; 20% in [6]; 40% in test [7]. Further, the pest or weed control at 125 g/ha came out at 20% in [8]; 0% in test [9]; 20% with Kochia (Kochia scoparia) [10]; 90% in test [11]; 40% in test [12]; 0% in [13]. In addition, the pest or weed control at 125 g/ha in test [14] was determined as 0%. Further, the pest or weed control at 31 g/ha came out at 0% with Kochia (Kochia scoparia) [1] (setting [15]); 20% in test [2] (setting [15]); 40% in test [3] (setting [15]); 0% in test [4] (setting [15]); 0% in test [6] (setting [15]); 0% in test [7] (setting [15]). Also, the pest or weed control at 31 g/ha stood at 0% in test [8] (setting [15]); 0% in test [9] (setting [15]); 0% in the test on Kochia (Kochia scoparia) [10] (setting [16]); 70% in test [11] (setting [16]); 30% in test [12] (setting [16]); 0% in test [13] (setting [16]). The pest or weed control at 31 g/ha in test [14] (setting [16]) is 0%. Further, the plant injury at 31 g/ha in test [5] (setting [15]) worked out at 0%. Also, the Corn plant response rating (crop injury, 0 = no effect, 100 = complete kill) at 125 g/ha in the test with corn (Zea mays) is 40%. The compound also gave a Corn plant response rating (crop injury, 0 = no effect, 100 = complete kill) at 31 g/ha in the test with corn (Zea mays) (setting [15]) of 0%.

Source of the values: US12077503B2, “Substituted cyclic amides and their use as herbicides” (FMC CORPORATION, priority 2015, dated 2024).
